Measurements taken from US10988478B1, “Pyrazolo[1,5a]pyrimidine derivatives as IRAK4 modulators” (Genentech, Inc., priority 2015, dated 2021).

Target: human IRAK4 (Homo sapiens (Human), UniProt Q9NWZ3)
Assay: IRAK4 kinase inhibition, Transcreener fluorescence polarization ADP assay
Assay type: biochemical
Details: recombinant full-length His6-IRAK4; 125 uM ATP; 90 min; Ki computed using ATP Km 642 uM
Experimental: Compounds were assayed for inhibition of human IRAK4 and IRAK1 catalytic activity using recombinant enzyme produced from insect cells. Full-length IRAK4 protein, carrying an N-terminal His6-Tag, was obtained from Life Technologies (Carlsbad, Calif., USA). The IRAK1 construct was produced internally and was comprised of IRAK1 residues Arg194 to Ser712, preceded by an NH2-terminal His6 tag and the coding sequence for glutathione-S-transferase.

Sequence of human IRAK4 (Q9NWZ3 whole entry): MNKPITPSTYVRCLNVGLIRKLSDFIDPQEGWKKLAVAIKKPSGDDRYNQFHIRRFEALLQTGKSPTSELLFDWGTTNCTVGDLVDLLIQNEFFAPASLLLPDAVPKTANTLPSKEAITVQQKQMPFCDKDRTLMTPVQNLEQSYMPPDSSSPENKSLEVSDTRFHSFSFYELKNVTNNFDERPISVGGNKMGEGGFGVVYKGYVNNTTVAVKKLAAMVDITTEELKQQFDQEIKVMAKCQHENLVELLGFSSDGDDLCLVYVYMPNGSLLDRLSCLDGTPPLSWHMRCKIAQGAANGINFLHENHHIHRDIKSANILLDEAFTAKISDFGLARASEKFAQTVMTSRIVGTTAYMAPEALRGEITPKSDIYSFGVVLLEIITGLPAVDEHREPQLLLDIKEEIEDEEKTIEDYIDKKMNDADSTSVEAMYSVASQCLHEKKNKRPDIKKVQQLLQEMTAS

Structure (SMILES) | Ki
C[C@]1(CO)Cc2cc(NC(=O)c3cnn4cccnc34)c(N3C[C@@H]4C[C@H]3CO4)cc2O1 [Example 47, N—((R)-6-((1S,4S)-2-Oxa-5-azabicyclo[2.2.1]heptan-5-yl)-2-(hydroxymethyl)-2-methyl-2,3-dihydrobenzofuran-5-yl)pyrazolo[1,5-a]pyrimidine-3-carboxamide] | 180 nM
CC1COc2cc(N3CCOCC3)c(NC(=O)c3cnn4cccnc34)cc2N1 (stereo not shown) [Example 10, N-(3-Methyl-7-morpholino-3,4-dihydro-2H-benzo[b][1,4]oxazin-6-yl)pyrazolo[1,5-a]pyrimidine-3-carboxamide] | 270 nM
CC1(CO)Cc2cc(NC(=O)c3cnn4cccnc34)c(N3CCC(n4ccnc4)CC3)cc2O1 (single isomer, unassigned) [Example 345, N-(6-(4-(1H-imidazol-1-yl)piperidin-1-yl)-2-(hydroxymethyl)-2-methyl-2,3-dihydrobenzofuran-5-yl)pyrazolo[1,5-a]pyrimidine-3-carboxamide] | 4 nM
CC(C)N1CCC2(CC1)Cc1cc(NC(=O)c3cnn4cccnc34)c(N3CCOCC3)cc1O2 [Example 372, N-(1′-isopropyl-6-morpholino-spiro[3H-benzofuran-2,4′-piperidine]-5-yl)pyrazolo[1,5-a]pyrimidine-3-carboxamide] | 13 nM
CC(C)NC(=O)CN1CCN(c2cc3c(cc2NC(=O)c2cnn4cccnc24)CC(C)(C)O3)CC1 [Example 225, N-(6-(4-(2-(Isopropylamino)-2-oxoethyl)piperazin-1-yl)-2,2-dimethyl-2,3-dihydrobenzofuran-5-yl)pyrazolo[1,5-a]pyrimidine-3-carboxamide] | 45 nM
CCC(=O)C1CCN(c2cc3c(cc2NC(=O)c2cnn4cccnc24)CC(C)(CO)O3)CC1 (stereo not shown) [Example 343, N-[2-(Hydroxymethyl)-2-methyl-6-(4-propanoyl-1-piperidyl)-3H-benzofuran-5-yl]pyrazolo[1,5-a]pyrimidine-3-carboxamide] | 5 nM
C[C@@]1(C2CC2)Cc2cc(NC(=O)c3cnn4cccnc34)c(N3CCN(CC(F)F)CC3)cc2O1 [Example 160, (S)—N-(2-Cyclopropyl-6-(4-(2,2-difluoroethyl)piperazin-1-yl)-2-methyl-2,3-dihydrobenzofuran-5-yl)pyrazolo[1,5-a]pyrimidine-3-carboxamide] | 4.8 nM
CC(C)C1(C)Cc2cc(NC(=O)c3cnn4cccnc34)c(N3CCOCC3)cc2O1 (stereo not shown) [Example 150, N-(2-Isopropyl-2-methyl-6-morpholino-2,3-dihydrobenzofuran-5-yl)pyrazolo[1,5-a]pyrimidine-3-carboxamide] | 89 nM
O=C(Nc1cc2c(cc1N1CCOCC1)C(=O)N(CC(F)(F)F)C2)c1cnn2cccnc12 [Example 173, N-[6-Morpholino-1-oxo-2-(2,2,2-trifluoroethyl)isoindolin-5-yl]pyrazolo[1,5-a]pyrimidine-3-carboxamide] | 29 nM
CC1(C)Cc2cc(NC(=O)c3cnn4cccnc34)c(OC[C@H]3CCCN3)cc2O1 [Example 291, (R)—N-(2,2-Dimethyl-6-(pyrrolidin-2-ylmethoxy)-2,3-dihydrobenzofuran-5-yl)pyrazolo[1,5-a]pyrimidine-3-carboxamide] | 380 nM
CC[C@@]1(C)Cc2cc(NC(=O)c3cnn4cccnc34)c(N3CCOCC3)cc2O1 [Example 96, (S)—N-(2-ethyl-2-methyl-6-morpholino-2,3-dihydrobenzofuran-5-yl)pyrazolo[1,5-a]pyrimidine-3-carboxamide] | 14 nM
CC(C)(O)[C@H](F)CN1Cc2cc(NC(=O)c3cnn4cccnc34)c(N3CCC([C@H](O)C(F)F)CC3)cc2C1=O (single isomer, unassigned) [Example 282] | 2 nM
CC1(C)Cc2cc(NC(=O)c3cnn4cc(OC(F)F)cnc34)c(N3CCOCC3)cc2O1 [Example 493, 6-(difluoromethoxy)-N-(2,2-dimethyl-6-morpholino-2,3-dihydrobenzofuran-5-yl)pyrazolo[1,5-a]pyrimidine-3-carboxamide] | 43 nM
C[C@]1(CO)CCc2cc(NC(=O)c3cnn4cccnc34)c(N3CCOCC3)cc2O1 (single isomer, unassigned) [Example 432] | 10 nM
Cc1noc(CN2CCN(c3cc4c(cc3NC(=O)c3cnn5cccnc35)CC(C)(C)O4)CC2)n1 [Example 459, N-(2,2-dimethyl-6-(4-((3-methyl-1,2,4-oxadiazol-5-yl)methyl)piperazin-1-yl)-2,3-dihydrobenzofuran-5-yl)pyrazolo[1,5-a]pyrimidine-3-carboxamide] | 16 nM
CC1(C)Cc2cc(NC(=O)c3cnn4ccc(C[C@@H]5CNC(=O)C5)nc34)c(C3CC3)cc2O1 [Example 512, (S)—N-(6-Cyclopropyl-2,2-dimethyl-2,3-dihydrobenzofuran-5-yl)-5-((5-oxopyrrolidin-3-yl)methyl)pyrazolo[1,5-a]pyrimidine-3-carboxamide] | 150 nM
C[C@@H]1CN(c2cc3c(cc2NC(=O)c2cnn4cccnc24)CC(C)(C)O3)C[C@H](C)N1CC(N)=O [Example 227, N-(6-((3R,5S)-4-(2-Amino-2-oxoethyl)-3,5-dimethylpiperazin-1-yl)-2,2-dimethyl-2,3-dihydrobenzofuran-5-yl)pyrazolo[1,5-a]pyrimidine-3-carboxamide] | 490 nM
C[C@@]1(O)CCCN(c2cc3c(cc2NC(=O)c2cnn4cccnc24)C[C@](C)(CO)O3)CC1 [Example 329, N-((R)-6-((R)-4-hydroxy-4-methylazepan-1-yl)-2-(hydroxymethyl)-2-methyl-2,3-dihydrobenzofuran-5-yl)pyrazolo[1,5-a]pyrimidine-3-carboxamide] | 6 nM
CC1(C)Cc2cc(NC(=O)c3cnn4cccnc34)c(OC[C@@H]3C[C@@H]4C[C@@H]4N3CC(F)F)cc2O1 [Example 293, N-(6-(((1S,3S,5S)-2-(2,2-difluoroethyl)-2-azabicyclo[3.1.0]hexan-3-yl)methoxy)-2,2-dimethyl-2,3-dihydrobenzofuran-5-yl)pyrazolo[1,5-a]pyrimidine-3-carboxamide] | 690 nM
CC1(C(=O)O)Cc2cc(NC(=O)c3cnn4cccnc34)c(N3CCOCC3)cc2O1 (stereo not shown) [Example 38, 2-Methyl-6-morpholino-5-(pyrazolo[1,5-a]pyrimidine-3-carboxamido)-2,3-dihydrobenzofuran-2-carboxylicacid] | 360 nM

More lines, now with the values ahead:

Ki | Structure (SMILES)
20 nM | CC1(C)Cc2cc(NC(=O)c3cnn4cccnc34)c(N3CCC(C(F)(F)F)C3)cc2O1 (stereo not shown) [Example 195, N-[2,2-dimethyl-6-[3-(trifluoromethyl)pyrrolidin-1-yl]-3H-benzofuran-5-yl]pyrazolo[1,5-a]pyrimidine-3-carboxamide]
17 nM | CC1(C)Cc2cc(NC(=O)c3cnn4cccnc34)c(N3CCC4(CC3)COC4)cc2O1 [Example 114, N-(2,2-Dimethyl-6-(2-oxa-7-azaspiro[3.5]nonan-7-yl)-2,3-dihydrobenzofuran-5-yl)pyrazolo[1,5-a]pyrimidine-3-carboxamide]
29 nM | CC1(C)Cc2cc(NC(=O)c3cnn4cccnc34)c(N3CC[C@](C)(CO)C3)cc2O1 [Example 94, (S)—N-(6-(3-(hydroxymethyl)-3-methylpyrrolidin-1-yl)-2,2-dimethyl-2,3-dihydrobenzofuran-5-yl)pyrazolo[1,5-a]pyrimidine-3-carboxamide]
3 nM | CC1(C)Cc2cc(NC(=O)c3cnn4cccnc34)c(N3CCC(C#N)CC3)cc2O1 [Example 216, N-(6-(4-cyanopiperidin-1-yl)-2,2-dimethyl-2,3-dihydrobenzofuran-5-yl)pyrazolo[1,5-a]pyrimidine-3-carboxamide]
3.1 nM | CC1(C)Cc2cc(NC(=O)c3cnn4cccnc34)c(N3CCC(C)(C(N)=O)CC3)cc2O1 [Example 184, N-[6-(4-carbamoyl-4-methyl-1-piperidyl)-2,2-dimethyl-3H-benzofuran-5-yl]pyrazolo[1,5-a]pyrimidine-3-carboxamide]
4 nM | CC1(C)Cc2cc(NC(=O)c3cnn4cccnc34)c(N3CCN(Cc4ncc[nH]4)CC3)cc2O1 [Example 503, N-(6-(4-((1H-imidazol-2-yl)methyl)piperazin-1-yl)-2,2-dimethyl-2,3-dihydrobenzofuran-5-yl)pyrazolo[1,5-a]pyrimidine-3-carboxamide]
190 nM | CC1(C)Cc2cc(NC(=O)c3cnn4cccnc34)c(-n3cnc(CO)c3)cc2O1 [Example 102, N-[6-[4-(hydroxymethyl)imidazo 1-1-yl]-2,2-dimethyl-3H-benzofuran-5-yl]pyrazolo[1,5-a]pyrimidine-3-carboxamide]
15 nM | CC1(C)Cc2cc(NC(=O)c3cnn4cccnc34)c(N3CCC(S(N)(=O)=O)C3)cc2O1 (stereo not shown) [Example 241, N-(2,2-Dimethyl-6-(3-sulfamoylpyrrolidin-1-yl)-2,3-dihydrobenzofuran-5-yl)pyrazolo[1,5-a]pyrimidine-3-carboxamide]
9 nM | CC1(C)Cc2cc(NC(=O)c3cnn4cccnc34)c(OC[C@@H]3CNC(=O)C3)cc2O1 [Example 308, N-[2,2-Dimethyl-6-[[(3S)-5-oxopyrrolidin-3-yl]methoxy]-3H-benzofuran-5-yl]pyrazolo[1,5-a]pyrimidine-3-carboxamide]
22 nM | CC(C)(O)CN1CCN(c2cc3c(cc2NC(=O)c2cnn4cccnc24)CC(C)(C)O3)CC1 [Example 434, N-(6-(4-(2-hydroxy-2-methylpropyl)piperazin-1-yl)-2,2-dimethyl-2,3-dihydrobenzofuran-5-yl)pyrazolo[1,5-a]pyrimidine-3-carboxamide]
24 nM | CCn1cc(COc2cc3c(cc2NC(=O)c2cnn4cccnc24)CC(C)(C)O3)cn1 [Example 448, N-(6-((1-ethyl-1H-pyrazol-4-yl)methoxy)-2,2-dimethyl-2,3-dihydrobenzofuran-5-yl)pyrazolo[1,5-a]pyrimidine-3-carboxamide]
